This is an account of results in patent US9546153B2, “Bicyclic heterocycle substituted pyridyl compounds useful as kinase modulators” (BRISTOL-MYERS SQUIBB COMPANY, priority 2012, dated 2017).

pEC50, pIC50: −log10 of the molar value. Where two headings read alike, the source gives them in different places.

Experiment [1] deals with TLR2 induced IL-6 in peripheral blood mononuclear cells (PBMCs). The experiment is described as follows: PBMC TLR2 Induced IL-6 Assay. The experiment is classed as cell-based, human. The following applies: human PBMCs, 10 μg/ml lipoteichoic acid for 5 hours, IL-6 by ELISA; for pIC50: value without asterisk, read-out: Cell IC50. The essentials:
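Human PBMCs (250000 cells/well) in RPMI with 10% heat-inactivated FCS pre-treated with compound for 30 min at 37° C, then stimulated 5 h with 10 μg/ml lipoteichoic acid. Supernatant IL-6 measured by ELISA and reported as IC50 or EC50.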

The next experiment deals with IRAK4 (Homo sapiens (Human), UniProt Q9NWZ3). The experiment is described as follows: IRAK4 Inhibition Assay. The experiment is classed as biochemical. Particulars: ATP 500 μM; IRAK4 0.6 nM; 60 min at room temperature. As to the method:
The assays were performed in U-bottom 384-well plates. […] The reaction was initiated by the combination of IRAK4 with substrates and test compounds. The reaction was incubated at room temperature for 60 min. and terminated by adding 45 μL of 35 mM EDTA to each sample. The reaction mixture was analyzed on the Caliper LABCHIP® 3000 (Caliper, Hopkinton, Mass.) by electrophoretic separation of the fluorescent substrate and phosphorylated product.

Chain of IRAK4 (Q9NWZ3 whole entry, species assumed): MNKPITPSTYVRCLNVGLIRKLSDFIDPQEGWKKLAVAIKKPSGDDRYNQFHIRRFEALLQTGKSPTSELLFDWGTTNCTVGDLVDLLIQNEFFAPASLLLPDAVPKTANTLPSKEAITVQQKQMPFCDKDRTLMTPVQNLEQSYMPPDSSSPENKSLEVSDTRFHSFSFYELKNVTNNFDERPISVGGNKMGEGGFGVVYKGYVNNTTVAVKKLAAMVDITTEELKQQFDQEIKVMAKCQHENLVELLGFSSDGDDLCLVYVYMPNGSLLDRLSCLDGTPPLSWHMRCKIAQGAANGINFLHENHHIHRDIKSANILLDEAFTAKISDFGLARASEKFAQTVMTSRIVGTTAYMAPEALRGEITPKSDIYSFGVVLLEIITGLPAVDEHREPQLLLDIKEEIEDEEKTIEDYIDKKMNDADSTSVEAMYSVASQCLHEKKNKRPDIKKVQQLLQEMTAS

On to `CC(C)(O)[C@H](F)CNC(=O)c1cnc(Nc2ccn3nccc3c2)cc1NC1CCCC1(F)F` (some centres unmarked) [Example 297], for which the pIC50 in experiment [1] (Homo sapiens, PBMC, 5 h) is 6.27; at IRAK4, 8.24.
Turning to `CNC(=O)C12CCC(NC(=O)c3cnc(Nc4ccc5ncsc5c4)cc3NC(C)C)(CC1)CC2` [Example 229], the negative logarithm of the IC50 (pIC50) in experiment [1] (Homo sapiens, PBMC, 5 h) is 6.31; at IRAK4, 8.47.
In the same order, the values of `CC(C)Nc1cc(Nc2ccc3ncsc3c2)ncc1C(=O)NCC[C@@H](C)NC(=O)CCCC(C)(C)O` [Example 190] are 6.60 and 8.48.
The corresponding values for `CC(C)Nc1cc(Nc2ccc3ncsc3c2)ncc1C(=O)NC1CCN(S(C)(=O)=O)CC1` [Example 217] are 6.25 and 8.30.
In the same order, the values of `CC(C)(O)[C@H](F)CNC(=O)c1cnc(Nc2ccc3ncccc3n2)cc1NC1CCOCC1` [Example 430] are 6.99 and 8.80.
Take `CC(C)Nc1cc(Nc2ccc3ncsc3c2)ncc1C(=O)NC[C@@H](F)C(C)(C)O` [Example 35]: the pIC50 is 6.32 in experiment [1] (Homo sapiens, PBMC, 5 h) and 8.59 on IRAK4.
In the same order, the values of `CC(C)Nc1cc(Nc2ccn3ncc(Cl)c3c2)ncc1C(=O)NC[C@@H](F)C(C)(C)O` [Example 295] are 6.35 and 8.32.
In the same order, the values of `CC(C)(O)[C@H](F)CNC(=O)c1cnc(Nc2ccc3nc(N)ccc3c2)cc1NC1CC1` [Example 75] are 6.15 and 7.72.
The corresponding values for `CC(C)Nc1cc(Nc2ccc3ncsc3c2)ncc1C(=O)NCC[C@@H](C)NC(=O)CC1CCCCC1(F)F` (some centres unmarked) [Example 188] are 6.29 and 8.60.
Take `O=C(NC1CCC(O)CC1)c1cnc(Nc2ccc3ncsc3c2)cc1NC1CCCC1` (centres unmarked) [Example 157]: the negative logarithm of the IC50 (pIC50) is 6.08 in experiment [1] (Homo sapiens, PBMC, 5 h) and 8.38 on IRAK4.
With `CC(C)(O)C(F)CNC(=O)c1cnc(Nc2ccc3ncsc3c2)cc1NC1CC(C(F)F)C1` (centres unmarked) [Example 361, 4-(3-(difluoromethyl)cyclobutylamino)-6-(3a,27a-dihydrobenzo[d]thiazol-6-ylamino)-N-(2-fluoro-3-hydroxy-3-methylbutyl)nicotinamide], the negative logarithm of the IC50 (pIC50) is 6.75 in experiment [1] and 8.16 at IRAK4.
For `CC(C)(O)[C@H](F)CNC(=O)c1cnc(Nc2ccn3nccc3c2)cc1NCC1CC1` [Example 290], the pIC50 in experiment [1] (Homo sapiens, PBMC, 5 h) is 6.22; on IRAK4, 7.94.
For `CC(C)(O)[C@H](F)CNC(=O)c1cnc(Nc2ccc3ncsc3c2)cc1N[C@H]1CCCC(O)C1` (some centres unmarked) [Example 328], the values for the negative-log IC50 (pIC50) (in experiment [1]; at IRAK4) were 6.31 and 8.32, respectively.
Take `CC(C)Nc1cc(Nc2ccc3ncsc3c2)ncc1C(=O)N[C@H]1CC[C@H](C(=O)NC(C)C)CC1` [Example 195]: the negative-log IC50 (pIC50) in experiment [1] (Homo sapiens, PBMC, 5 h) is 6.79; at IRAK4 it was 8.70.
In the case of `CC1COCCC1Nc1cc(Nc2ccc3ncsc3c2)ncc1C(=O)NC[C@@H](F)C(C)(C)O` (some centres unmarked) [Example 233], the figures for the negative-log IC50 (pIC50) (in experiment [1]; at IRAK4) were 6.33 and 8.13, respectively.
The corresponding values for `CC(C)(O)[C@H](F)CNC(=O)c1cnc(Nc2ccc3nccn3n2)cc1NC1CCC(F)C1` (some centres unmarked) [Example 280] are 6.90 and 8.57.
As for `CC(C)C(O)[C@H](F)CNC(=O)c1cnc(Nc2ccc3ncsc3c2)cc1NC1CC1` (some centres unmarked) [Example 25], the pIC50 in experiment [1] was 7.22; on IRAK4, 8.46.
As for `CC(C)Nc1cc(Nc2ccc3ncsc3c2)ncc1C(=O)NC1CCc2nnnn2CC1` (centres unmarked) [Example 527, 6-(benzo[d]thiazol-6-ylamino)-4-(isopropylamino)-N-(6,7,8,9-tetrahydro-5H-tetrazolo[1,5-a]azepin-7-yl)nicotinamide], in experiment [1] (Homo sapiens, PBMC, 5 h, EC50 determinations are indicated with an asterisk, read-out: Cell EC50 (asterisk)), the pEC50 was 6.49. The pIC50 on IRAK4 was 8.11.
On to `CC(C)(O)[C@H](F)CNC(=O)c1cnc(Nc2ccc3ncc(C#N)cc3n2)cc1NC1CCC(F)(F)C1` (some centres unmarked) [Example 406], for which the pIC50 was 5.88 in experiment [1] and 7.93 on IRAK4.
On to `CC(C)(O)C1CC(Nc2cc(Nc3ccc4ncsc4c3)ncc2C(=O)NC[C@@H](F)C(C)(C)O)C1` (some centres unmarked) [Example 64], for which the negative-log IC50 (pIC50) in experiment [1] (Homo sapiens, PBMC, 5 h) is 6.36; at IRAK4, 8.28.
The corresponding values for `CC(C)Nc1cc(Nc2ccc3ncsc3c2)ncc1C(=O)N[C@H]1CC[C@H](NC(=O)c2ccccn2)CC1` [Example 201] are 6.30 and 8.35.
For the compound `CC(C)(O)[C@H](F)CNC(=O)c1cnc(Nc2ccc3ncsc3c2)cc1NC12CCC(O)(CC1)C2` [Example 133], the pIC50 was 6.64 in experiment [1] (Homo sapiens, PBMC, 5 h) and 8.70 on IRAK4.
Take `CC(C)(O)[C@H](F)CNC(=O)c1cnc(Nc2ccc3ncsc3c2)cc1NC1CCOCC1F` (some centres unmarked) [Example 230]: the pIC50 in experiment [1] was 6.56; at IRAK4, 8.29.
The corresponding values for `CC(C)(O)[C@H](F)CNC(=O)c1cnc(Nc2ccc3ncc(C#N)cc3n2)cc1NC1CCCOC1` (some centres unmarked) [Example 443] are 6.90 and 8.35.
As for `CC(C)Nc1cc(Nc2cc(F)c3ncsc3c2)ncc1C(=O)NC[C@@H](F)C(C)(C)O` [Example 120], the negative logarithm of the IC50 (pIC50) in experiment [1] (Homo sapiens, PBMC, 5 h) is 6.34; at IRAK4, 8.23.
Regarding `CC(C)(O)C1CC(Nc2cc(Nc3ccc4ncsc4c3)ncc2C(=O)NC[C@@H](F)C(O)(C2CC2)C(F)(F)F)C1` (some centres unmarked) [Example 32], the pIC50 in experiment [1] (Homo sapiens, PBMC, 5 h) was 6.29; at IRAK4, 7.82.
The corresponding values for `CC(C)NC(=O)N[C@H]1CC[C@H](NC(=O)c2cnc(Nc3ccc4ncsc4c3)cc2NC(C)C)CC1` [Example 206] are 6.86 and 8.68.
The corresponding values for `CC(C)(O)[C@H](F)CNC(=O)c1cnc(Nc2ccc3ncncc3c2)cc1NC1CCC1` [Example 73] are 6.49 and 8.57.
For `CC(O)([C@H](F)CNC(=O)c1cnc(Nc2ccc3ncsc3c2)cc1NC1CC1)C(F)(F)F` (some centres unmarked) [Example 19], the pIC50 is 6.75 in experiment [1] and 8.37 at IRAK4.
`CCC(C)Nc1cc(Nc2ccn3nccc3n2)ncc1C(=O)NC[C@@H](F)C(C)(C)O` (some centres unmarked) [Example 387]: the pIC50 in experiment [1] (Homo sapiens, PBMC, 5 h) is 6.53; on IRAK4, 8.37.
For `CC(C)(O)[C@H](F)CNC(=O)c1cnc(Nc2nc3ccnn3cc2F)cc1NC1CCC(F)(F)C1` (some centres unmarked) [Example 391], the figures for the negative-log IC50 (pIC50) (in experiment [1]; on IRAK4) were 6.92 and 8.60, respectively.
Consider `CCCNC(=O)c1ccc(Nc2cc(Nc3ccc4ncsc4c3)ncc2C(=O)NC[C@@H](F)C(C)(C)O)cc1` [Example 326], for which the negative-log IC50 (pIC50) in experiment [1] (Homo sapiens, PBMC, 5 h) is 6.36; on IRAK4, 7.89.
As to `CC(C)(O)[C@H](F)CNC(=O)c1cnc(Nc2ccc3ncsc3c2)cc1NC1CCC(O)C1` (some centres unmarked) [Example 38], the pIC50 was 6.37 in experiment [1] and 8.28 on IRAK4.
Regarding `CC(C)(O)[C@H](F)CNC(=O)c1cnc(Nc2ccc3ncsc3c2)cc1NC12CCC(NS(=O)(=O)c3ccccc3)(CC1)C2` [Example 401], the negative-log IC50 (pIC50) in experiment [1] (Homo sapiens, PBMC, 5 h) is 6.48; at IRAK4, 7.90.
With `CC(C)Nc1cc(Nc2ccc3ncc(F)cc3n2)ncc1C(=O)NC[C@@H](F)C(C)(C)O` [Example 427], the negative-log IC50 (pIC50) in experiment [1] (Homo sapiens, PBMC, 5 h) is 7.38; on IRAK4, 8.82.
The corresponding values for `CC(C)(O)[C@H](F)CNC(=O)c1cnc(Nc2ccc3ncsc3c2)cc1N[C@H]1CC[C@H](N)CC1` [Example 61] are 6.59 and 8.15.
For `CC(C)(O)[C@H](F)CNC(=O)c1cnc(Nc2ccn3nccc3c2F)cc1N[C@@H]1CCCC1(F)F` [Example 435], the negative-log IC50 (pIC50) is 7.10 in experiment [1] (Homo sapiens, PBMC, 5 h) and 8.68 on IRAK4.
